Results as given in ChEMBL document CHEMBL3045938, “Methionine-induced phytoalexin production in rice leaves” (2000).
The source made the active and inactive calls. The rule behind the calls is not given here.

Key:
Type in all cases: functional, organism-based
Oryza sativa [1] = test: Induction of disease resistance in Oryza sativa Nipponbare (rice) assessed as increase in sakuranetin level in press-injured leaves at 0.1% after 48 hr by HPLC-MS-MS analysis
Oryza sativa [2] = test: Induction of disease resistance in Oryza sativa Nipponbare (rice) assessed as increase in momilactone level in press-injured leaves at 10 mM after 48 hr by HPLC-MS-MS analysis
Oryza sativa [3] = test: Induction of disease resistance in Oryza sativa Nipponbare (rice) assessed as increase in sakuranetin level in press-injured leaves at 10 mM after 48 hr by HPLC-MS-MS analysis
Oryza sativa [4] = test: Induction of disease resistance in Oryza sativa Nipponbare (rice) assessed as increase in jasmonic acid level in press-injured leaves at 0.5 mM pretreated with water 24 hr prior to compound treatment measured after 6 hr by HPLC-MS-MS analysis relative to control
Oryza sativa [5] = test: Induction of disease resistance in Oryza sativa Nipponbare (rice) assessed as increase in jasmonic acid level in press-injured leaves at 0.5 mM after 1 to 2 hr by HPLC-MS-MS analysis relative to control
Oryza sativa [6] = test: Induction of disease resistance in Oryza sativa Nipponbare (rice) assessed as increase in momilactone level in uninjured leaves at 0.5 mM pretreated with water 24 hr prior to compound treatment measured after 8 to 10 hr by HPLC-MS-MS analysis relative to control
Oryza sativa [7] = test: Induction of disease resistance in Oryza sativa Nipponbare (rice) assessed as increase in sakuranetin level in uninjured leaves at 0.5 mM pretreated with water 24 hr prior to compound treatment measured after 8 to 10 hr by HPLC-MS-MS analysis relative to control
Oryza sativa [8] = test: Induction of disease resistance in Oryza sativa Nipponbare (rice) assessed as increase in momilactone level in press-injured leaves at 0.5 mM pretreated with water 24 hr prior to compound treatment measured after 8 to 10 hr by HPLC-MS-MS analysis relative to control
Oryza sativa [9] = test: Induction of disease resistance in Oryza sativa Nipponbare (rice) assessed as increase in sakuranetin level in press-injured leaves at 0.5 mM pretreated with water 24 hr prior to compound treatment measured after 8 to 10 hr by HPLC-MS-MS analysis relative to control

C[S+](CC[C@H](N)C(=O)[O-])C[C@H]1O[C@@H](n2cnc3c(N)ncnc32)[C@H](O)[C@@H]1O (stereo not given in full)
Activity (Oryza sativa [1]): inactive

N[C@@H](Cc1ccccc1)C(=O)O
Activity (Oryza sativa [1]): inactive

O=P(O)(O)CCCl
Activity (Oryza sativa [2]): inactive
Activity (Oryza sativa [3]): Active

CUPRIC CHLORIDE
Activity (Oryza sativa [4]): Active
Activity (Oryza sativa [5]): inactive
Activity (Oryza sativa [6]): inactive
Activity (Oryza sativa [7]): inactive
Activity (Oryza sativa [8]): Active
Activity (Oryza sativa [9]): Active
